Positions of bridges follow the written chain, without caps; N, C: chain ends. Non-standard residues stand in square brackets, D forms with d. No end group written: not given here.
Assays:
whole blood cells = experiment: Whole cell bead binding assay, whole blood cells; design: species or system human; details: peptide on beads
fibroblasts = experiment: Whole cell bead binding assay, fibroblasts; details: peptide on beads
[1] = system: cells from the normal specimen of the same bladder; experiment: Whole cell bead binding assay, cells from normal specimen of the same bladder; design: species or system human; details: beads coated with PLZ4; same cystectomy specimen
Description: The beads were washed extensively with double-distilled water and phosphate-buffered saline (PBS) before screening. Bladder cancer cells and normal urothelial cells were detached from culture dishes with trypsin/EDTA or a Detach kit (PromoCell, Heidelberg, Germany), washed with their corresponding culture medium, resuspended at 10^6 cells/ml and incubated with OBOC beads in Petri dishes in a humidified CO2 incubator at 37° C. with shaking (60 rpm). Beads bound by cells appeared as rosettes with a central bead covered by a layer(s) of cells under a microscope. The positive beads were picked with a pipette under inverted microscope, treated with Quanidine HCl (8M, 20 min) to remove cells and proteins on beads surface, and underwent a second round of incubation with the same cells to confirm the binding. Only those beads with cell bindings at both rounds were sent for the amino acid sequencing as previously described (Peng, et al., Nat Chem Biol, (2006) 2: 381-389).
The cell surface molecules on established cell lines in culture may not be the same as those molecules on primary bladder cancer cells. It was assessed if PLZ4 could bind to bladder cancer cells from patients. Beads coated with PLZ4 could bind to primary bladder cancer cells from patients (FIGS. 3A and B). […] In one patient, both normal tissue and bladder cancer tissue from the same cystectomy specimen were available.

[2] = molecular target: T1, K562 cells transfected with a503 integrin (Homo sapiens, UniProt P05106+P06756); experiment: Bead binding to K562 cells transfected with integrin; details: OBOC beads bearing PLZ4
T1 construct: expressed in transfected cells; host or cells: K562
Description: Here, OBOC beads bearing PLZ4 peptides on the surface were incubated with K562 cells transfected with various integrins. K562 cells express endogenous a501 integrin. […] Several other ligands obtained from the initial screening also contain the DGR motif. […] To identify which amino acids are involved in determining cell binding and binding specificity, “alanine walk” was performed combined with the rainbow bead coding methods (Luo, et al., J Comb Chem, (2008) 10: 599-604). The amino acids aspartic acid (D, the X2 position), arginine (R, X4) and phenylalanine (F, X7) are important for cell binding. Replacement of any of these amino acids with alanine completely abolished the binding of the peptides to 5637 cells (FIG. 6B). […] Methionine at the X5 position could be replaced to many other amino acids without compromising the binding affinity. Based on this analysis, the three amino acids (D, G and R) at the N-terminus together with the two amino acids (G and F) at the C-terminus determine the binding specificity. Therefore, the binding pocket may be in the clover shape: one for the N-terminal three amino acids, one for the C-terminal two amino acids and a middle pocket. So w the depth of the middle binding pocket by adding different numbers of glycine residue to the X5 position. […]

[3] = system: normal canine bladder urothelial cells; experiment: Whole cell binding assay of Example 2, normal canine urothelial cells; details: PLZ4 beads
Description: (§1) This experiment was repeated 3 times for cell lines. […] 5637 human bladder cancer cell line; b. […] The average diameter of the beads is 90 μm. […] This experiment was repeated for 3 times. (200×)
(§2) To determine the binding of PLZ4 to canine TCC cell lines, whole cell binding assay was performed. PLZ4 was synthesized on TentaGel S NH2 resin beads (Rapp Polymere Gmbh, Germany) (Pegram, et al., J Clin Oncol (1998) 16:2659-2671), and incubated with single suspensions of five different canine carcinoma cell lines including K9TCC-PU, K9TCC-PU-AxA, K9TCC-PU-In, K9TCC-PU-AxC, and K9TCC-PU-Nk (kindly provided by Deborah Knapp at Purdue University, West Lafayette, Ind., USA) at 10^6 cells/ml. The negative control was normal urothelial cells obtained from dogs that were euthanized due to non-bladder-related disorders. Human bladder cancer cell line, 5637 were served as the positive control. If PLZ4 bound to cells in suspension, then the bead surface was covered with cells. Over 95% of the bead surface was covered with 5637 and K9TCC cells (FIG. 7A-a and b, respectively).

[4] = system: bladder cells from a dog with chronic cystitis; experiment: Whole cell binding assay of Example 2, chronic cystitis bladder cells; design: species or system canine; details: PLZ4 beads
Description: as §1, §2

T1 sequence (P06756 31-889 limits assumed): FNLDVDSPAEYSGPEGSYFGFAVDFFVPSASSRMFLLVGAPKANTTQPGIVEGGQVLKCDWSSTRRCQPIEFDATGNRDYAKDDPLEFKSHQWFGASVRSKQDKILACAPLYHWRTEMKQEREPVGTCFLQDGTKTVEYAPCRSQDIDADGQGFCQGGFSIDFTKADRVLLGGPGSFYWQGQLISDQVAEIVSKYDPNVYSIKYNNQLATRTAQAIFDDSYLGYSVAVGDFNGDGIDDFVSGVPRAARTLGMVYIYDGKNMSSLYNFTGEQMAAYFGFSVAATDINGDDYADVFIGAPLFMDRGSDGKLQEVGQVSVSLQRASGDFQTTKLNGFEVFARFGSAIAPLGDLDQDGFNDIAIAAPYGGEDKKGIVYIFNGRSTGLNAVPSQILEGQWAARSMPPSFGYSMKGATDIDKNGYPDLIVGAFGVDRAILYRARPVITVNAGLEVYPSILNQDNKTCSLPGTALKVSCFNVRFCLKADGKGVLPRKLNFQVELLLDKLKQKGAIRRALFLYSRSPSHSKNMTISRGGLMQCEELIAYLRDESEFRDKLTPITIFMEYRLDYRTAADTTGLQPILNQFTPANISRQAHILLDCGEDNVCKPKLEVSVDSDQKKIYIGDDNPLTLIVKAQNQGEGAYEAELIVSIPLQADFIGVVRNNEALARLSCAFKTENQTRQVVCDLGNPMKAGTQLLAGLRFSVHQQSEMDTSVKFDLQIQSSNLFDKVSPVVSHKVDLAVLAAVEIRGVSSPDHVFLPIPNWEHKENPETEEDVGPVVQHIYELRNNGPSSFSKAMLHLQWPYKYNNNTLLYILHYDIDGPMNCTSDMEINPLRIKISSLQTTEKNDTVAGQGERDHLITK
T1 sequence (P06756 891-1048 partner limits assumed): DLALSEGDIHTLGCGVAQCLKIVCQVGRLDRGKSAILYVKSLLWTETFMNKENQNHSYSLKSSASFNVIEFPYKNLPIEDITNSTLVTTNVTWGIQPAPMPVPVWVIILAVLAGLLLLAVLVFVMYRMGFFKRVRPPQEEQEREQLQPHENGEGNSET
T1 sequence (P05106 27-788): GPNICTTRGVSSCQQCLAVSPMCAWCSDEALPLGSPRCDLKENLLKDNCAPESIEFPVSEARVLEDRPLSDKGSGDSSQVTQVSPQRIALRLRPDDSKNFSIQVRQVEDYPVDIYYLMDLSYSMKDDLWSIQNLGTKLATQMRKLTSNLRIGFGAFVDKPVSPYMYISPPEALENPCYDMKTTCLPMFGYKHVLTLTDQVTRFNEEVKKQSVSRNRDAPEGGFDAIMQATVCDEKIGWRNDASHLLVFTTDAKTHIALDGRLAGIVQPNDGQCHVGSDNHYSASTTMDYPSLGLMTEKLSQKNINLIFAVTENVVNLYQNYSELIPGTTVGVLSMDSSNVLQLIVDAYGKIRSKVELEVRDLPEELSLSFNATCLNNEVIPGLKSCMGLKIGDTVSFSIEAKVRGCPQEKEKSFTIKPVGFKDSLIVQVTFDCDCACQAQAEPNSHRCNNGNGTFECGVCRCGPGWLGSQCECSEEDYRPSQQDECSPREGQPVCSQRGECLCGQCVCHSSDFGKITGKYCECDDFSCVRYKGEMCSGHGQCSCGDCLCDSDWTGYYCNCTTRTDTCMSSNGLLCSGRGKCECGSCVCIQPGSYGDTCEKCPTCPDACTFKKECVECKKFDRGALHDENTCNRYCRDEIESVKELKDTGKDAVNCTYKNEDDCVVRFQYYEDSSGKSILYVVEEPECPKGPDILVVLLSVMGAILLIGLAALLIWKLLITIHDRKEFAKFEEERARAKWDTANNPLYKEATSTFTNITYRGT

cQDGRMGFc ([dC]QDGRMGF[dC]; disulfide 1-9 (inferred)) [PLZ4, bladder cancer-specific ligand peptide]
binding to whole blood cells (whole blood cells): did not bind
binding to fibroblasts (fibroblasts): did not bind
binding to cells from the normal specimen of the same bladder [1]: not to the cells from the normal specimen
binding to K562 cells transfected with a503 integrin [2]: bound
binding to normal canine bladder urothelial cells [3]: no cell binding
binding to bladder cells from a dog with chronic cystitis [4]: no cell binding

Reference: patent publication US10335365B2, “Bladder cancer specific ligand peptides” (The Regents of the University of California, priority 2009, dated 2019)
